Assay results published in patent publication US20120016011A1, “RNA Interference Mediated Inhibition of Connective Tissue Growth Factor (CTGF) Gene Expression Using Short Interfering Nucleic Acid (siNA)” (Merck Sharp & Dohme Corp., priority 2009, published 2012).
[invAb] = inverted abasic unit; d = 2'-deoxy (DNA); m = 2'-O-methyl; r = 2'-OH (RNA); f = 2'-fluoro

Experiments:
[1] = tested on: CTGF mRNA; experiment: CTGF mRNA knockdown (Taqman RT-PCR) after siNA transfection of human NHLF cells; assay type: cell-based; conditions: 10 nM siNA, 24 hrs, average of 3 experiments, vs non-targeting control
In short: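 Normal human lung fibroblasts (5000 cells/well) were transfected 24 h after plating with 10 nM siNA complexed with RNAiMax and harvested 24 h later without a media change. CTGF mRNA was measured by TaqMan RT-qPCR on Cells-to-CT lysates, with β-actin and GAPDH assayed alongside. Knockdown was calculated by comparative Ct (ΔΔCt) against non-targeting control siNA.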

[2] = tested on: CTGF mRNA; experiment: CTGF mRNA knockdown (Taqman RT-PCR) after siNA transfection of mouse NIH 3T3 cells; assay type: cell-based; conditions: mouse NIH3T3 cells, 10 nM siNA, 24 hrs, average of 3 experiments, vs non-targeting control
In short: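 Mouse NIH 3T3 cells, 5000/well, transfected 24 h after plating with siNA at 10 nM final using RNAiMax, 24 h exposure without media change. CTGF mRNA by TaqMan RT-qPCR with GAPDH, knockdown via comparative Ct (2^−ΔΔCt) against non-targeting control siNA.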

Row | Substance | % KD Human [1] [%] | % KD Mouse [2] [%]
1 | 48051-DC: siNA duplex; sense SEQ ID NO: 67 B GGGuGuGUGAcGAGcccAA TTB; antisense SEQ ID NO: 68 UUGGGcucGucAcAcAcccUU (sense GGGUGUGUGACGAGCCCAATT; antisense UUGGGCUCGUCACACACCCUU; sense: sugars from the 5' end dddfdfddddfdddfffdddd, [invAb] at 5' end, 3' end, backbone not given here; antisense: sugars from the 5' end rrrmmfffmffmfmfmfffmm, backbone not given here) | 15 ± 10 | 14 ± 11
2 | 48058-DC: siNA duplex; sense SEQ ID NO: 81 B cAGuGGAAcuAcAuuAGuA TTB; antisense SEQ ID NO: 82 UACuAAuGuAGuuccAcuGUU (sense CAGUGGAACUACAUUAGUATT; antisense UACUAAUGUAGUUCCACUGUU; sense: DNA at AGT, 2'-fluoro at CU, [invAb] at 5' end, 3' end, backbone not given here; antisense: sugars from the 5' end rrrfmmfmfrmffffmffmmm, backbone not given here) | 79 ± 3 | 17 ± 3
3 | 48069-DC: siNA duplex; sense SEQ ID NO: 103 B AGuGcAuccGGAcAccuAA TTB; antisense SEQ ID NO: 104 UUAGGuGuccGGAuGcAcuUU (sense AGUGCAUCCGGACACCUAATT; antisense UUAGGUGUCCGGAUGCACUUU; sense: DNA at AGT, 2'-fluoro at CU, [invAb] at 5' end, 3' end, backbone not given here; antisense: sugars from the 5' end rrrmmfmfffmmmfmfmffmm, backbone not given here) | 45 ± 7 | 55 ± 2
